Consider 37 molecules from US9290511B2, “Thieno-pyrimidines, useful as potassium channel inhibitors” (XENTION LIMITED, priority 2011, dated 2016).

A value given as a limit tells only on which side of the number the result lay.

The test addresses T1, Kir3.1/3.4 (Rattus norvegicus, UniProt P48548+P63251).
T1 construct: expressed in transfected cells
T1 sequence (P63251 1-501): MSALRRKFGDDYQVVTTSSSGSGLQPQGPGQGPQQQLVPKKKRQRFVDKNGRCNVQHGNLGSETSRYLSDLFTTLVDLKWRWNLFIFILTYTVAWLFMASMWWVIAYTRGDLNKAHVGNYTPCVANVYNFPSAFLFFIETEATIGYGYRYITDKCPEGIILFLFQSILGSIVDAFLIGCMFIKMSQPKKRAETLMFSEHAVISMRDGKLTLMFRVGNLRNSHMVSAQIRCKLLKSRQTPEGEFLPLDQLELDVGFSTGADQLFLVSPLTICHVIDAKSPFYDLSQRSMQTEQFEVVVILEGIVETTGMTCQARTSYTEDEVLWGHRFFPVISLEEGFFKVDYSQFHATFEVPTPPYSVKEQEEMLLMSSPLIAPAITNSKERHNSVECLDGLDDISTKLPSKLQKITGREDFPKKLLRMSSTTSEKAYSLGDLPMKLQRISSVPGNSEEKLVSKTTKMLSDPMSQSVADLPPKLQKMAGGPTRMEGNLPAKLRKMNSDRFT
T1 sequence (P48548 1-419): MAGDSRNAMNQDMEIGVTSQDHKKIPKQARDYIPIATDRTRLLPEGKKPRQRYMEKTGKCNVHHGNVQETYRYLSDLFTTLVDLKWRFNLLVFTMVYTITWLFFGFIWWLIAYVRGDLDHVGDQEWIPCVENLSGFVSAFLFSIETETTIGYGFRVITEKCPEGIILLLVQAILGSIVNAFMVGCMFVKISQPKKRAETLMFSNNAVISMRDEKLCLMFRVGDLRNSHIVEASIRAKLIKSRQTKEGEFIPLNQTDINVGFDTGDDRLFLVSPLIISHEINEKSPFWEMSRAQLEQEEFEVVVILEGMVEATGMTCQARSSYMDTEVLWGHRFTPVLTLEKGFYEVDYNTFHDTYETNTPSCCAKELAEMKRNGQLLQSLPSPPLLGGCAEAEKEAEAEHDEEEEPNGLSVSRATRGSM
Briefly: Kir3.1/3.4 Electrophysiology Method (manual whole-cell patch clamp). Format: cell-based. To be noted: Electrophysiology Method (TABLE 1). Here is the method: Compound activity against the recombinant G-protein activated inward rectifier current encoded by the heterotetramer Kir3.1/3.4 was assessed using manual whole-cell patch technique. The heterotetramer forms the pore-forming channel that conducts the acetylcholine/adenosine-activated potassium current in the heart.
For whole-cell patch-clamp studies, cells (Human Embryonic Kidney 293 stably transfected with rat Kir3.1/3.4) were seeded onto glass coverslips before recordings were made. Cells were seeded in sterile 30 mm Petri dishes at a density to enable isolated cells to be selected for patch clamp experiments. The dishes were stored in a humidified, gassed (5% CO2) incubator at 37° C. until use.
Whole-cell patch-clamp recordings of membrane currents were made following gigaohm seal formation between the patch electrode and the cell using HEKA EPC-9/10 amplifiers controlled by Pulse Software (Ver8.5x/8.6×/8.7×, HEKA, Germany). Coverslips seeded with cells were placed in a recording chamber mounted on the stage of an inverted microscope. During the experiment, the cell of interest was continuously superfused with bather solution delivered via a cannula placed in close proximity to the cell to enable control of the extracellular solution environment. Only those cells with a current <−500 pA (current at −140 mV) were used for experiments. During experiments, series resistance was compensated by a minimum of 70%.
Electrophysiology voltage-step protocols and analysis of data were performed as follows. Data was sampled at 5 kHz, and filtered with a −3 dB bandwidth of 2.5 kHz. Cells were held at a voltage of −60 mV. Currents were evoked by a depolarising voltage step to +60 mV (100 ms) before a ramp-repolarisation (0.4 V·s^−1) to −140 mV (100 ms) before returning to −60 mV. The command waveform was repeatedly applied every 10 s throughout the experiment. Mean currents during 1-99% of the time at −140 mV were analysed using Pulsefit software (v8.x, HEKA, Germany). The voltage protocol was repeatedly applied to achieve a stable current baseline in bather before the test substance was superfused via the cannula in close proximity to the cell under investigation. The test substance was allowed to equilibrate during which time voltage protocol was repeatedly applied and recorded. On reaching steady-state inhibition, the cell was superfused with an identical bather solution containing zero external potassium chloride (replaced by equimolar NaCl). The identical current measurement was made in the absence of potassium to assess the passive leak at −140 mV. The leak current was subtracted from the control and steady-state drug current values. The percentage inhibition of the leak-subtracted current in the presence of test substance was calculated relative to the control leak-subtracted pre-drug value. Internal patch-pipette solution contained in mM: 110 KCl, 20 NaCl, 0.9 GTPγS, 5 Mg-ATP, 5 EGTA, 10 HEPES, pH7.2 corrected with KOH. The external superfusate composition in mM was: 150 (or 160) NaCl, 10 (or 0) KCl, 3 CaCl2, 1 MgCl, 10 HEPES, pH 7.4 corrected with NaOH.
On the technique in general: The patch-clamp technique gives a direct electrical read-out from membranes.
The molecule `NCCNCC1CCN(c2ncnc3scc(-c4ccccc4)c23)CC1` [Example 63, N′-[[1-(5-phenylthieno[2,3-d]pyrimidin-4-yl)-4-piperidyl]methyl]ethane-1,2-diamine] displayed an IC50 below 500 nM.
As for `COc1ccccc1-c1csc2ncnc(N3C4CCC3CC(NC3CCC3)C4)c12` (stereo not shown) [Example 342], the IC50 was below 500 nM.
Molecule `OC1CCN(c2nc(NCCN3CCCC3)nc3scc(-c4ccccc4)c23)C1` (stereo not shown) [Example 189] gave an IC50 of 500 to 3000 nM.
The molecule `OC1(CN2CCCC2)CCN(c2ncnc3scc(-c4ccccc4)c23)CC1` [Example 195] had an IC50 below 500 nM.
The molecule `COc1ncccc1-c1csc2ncnc(N3C4CCC3CC(NC3CCC3)C4)c12` (stereo not shown) [Example 345] returned an IC50 below 500 nM.
The result for “5-phenyl-thieno[2,3-d]pyrimidine [Example 160]” reads below 500 nM; that for `NC(=O)C1CCN(c2nc(N3C4CCC3CC(NC3CCC3)C4)c3c(-c4ccccc4)csc3n2)C1` (stereo not shown) [Example 337, 1-[4-[3-(cyclobutylamino)-8-azabicyclo[3.2.1]octan-8-yl]-5-phenyl-thieno[2,3-d]pyrimidin-2-yl]pyrrolidine-3-carboxamide], 500 to 3000 nM.
The molecule `CN1CCN(c2nc(N3CCC(CNCCC4CCCN4C)CC3)c3c(-c4ccccc4)csc3n2)CC1` (stereo not shown) [Example 114] registered an IC50 of 500 to 3000 nM.
In the case of `CN1CCC(N(C)CC2CCN(c3nc(N(C)CC(N)=O)nc4scc(-c5ccccc5)c34)CC2)C1` (stereo not shown) [Example 121], the IC50 was below 500 nM.
Molecule `c1ccc(CNc2sc3ncnc(N4CCC(COCCN5CCCC5)CC4)c3c2-c2ccccc2)cc1` [Example 168, N-benzyl-5-phenyl-4-[4-(2-pyrrolidin-1-ylethoxymethyl)-1-piperidyl]thieno[2,3-d]pyrimidin-6-amine] had an IC50 below 500 nM.
In the case of `CC(C)(C)OC(=O)N1CCCC1CCNCC1CCN(c2ncnc3scc(-c4ccccc4)c23)CC1` (stereo not shown) [Example 82, tert-butyl 2-[2-[[1-(5-phenylthieno[2,3-d]pyrimidin-4-yl)-4-piperidyl]methylamino]ethyl]pyrrolidine-1-carboxylate], the concentration for half-maximal inhibition (IC50) was below 500 nM.
The molecule `FC(F)(F)c1nc(N2C3CCC2CC(NC2CCC2)C3)c2c(-c3ccccc3)csc2n1` (stereo not shown) [Example 359] came in with a half-inhibitory concentration (IC50) below 500 nM.
Molecule `CC(C)c1csc2ncnc(N3CCC(COCCN4CCCC4)CC3)c12` [Example 265] gave an IC50 below 500 nM.
In turn, `COc1ccccc1-c1csc2ncnc(N3C4CCC3CC(N(C)C3CCC3)C4)c12` (stereo not shown) [Example 350] had an IC50 below 500 nM.
Regarding `COc1ccccc1-c1csc2ncnc(N3C4CCC3CC(COCCN3CCCC3)C4)c12` (stereo not shown) [Example 362], the IC50 is below 500 nM.
For the molecule `c1ccc(-c2csc3ncnc(N4CCC(OCCCN5CCCC5)CC4)c23)cc1` [Example 296], the IC50 is below 500 nM.
For `CC(C)C(=O)Nc1sc2nc(N3CCC(COCCN4CCCC4)CC3)ncc2c1-c1ccccc1` [Example 304], the IC50 is below 500 nM.
Regarding `Fc1ccc(-c2csc3nc(N4CCC(COCCN5CCCC5)CC4)ncc23)cc1` [Example 152], the IC50 was below 500 nM.
On to `c1ccc(-c2csc3ncnc(N4C5CCC4CC(OCCN4CCCC4)C5)c23)cc1` (stereo not shown) [Example 289], for which the IC50 is below 500 nM.
Regarding `CC(C)Oc1ncccc1-c1csc2ncnc(N3CCC(COCCN4CCCC4)CC3)c12` [Example 328], the IC50 was below 500 nM.
Consider `c1ccc(-c2csc3ncnc(N4CC5CC4CC5OCCN4CCCC4)c23)cc1` (stereo not shown) [Example 284], for which the IC50 was below 500 nM.
To `c1ccc(-c2csc3ncnc(N4C5CCC4CC(CNC4CCC4)C5)c23)cc1` (stereo not shown) [Example 323] belongs below 500 nM; to `CN1CCCC1CCNC(=O)C1CCN(c2ncnc3scc(-c4ccccc4)c23)CC1` (stereo not shown) [Example 166, N-[2-(1-methylpyrrolidin-2-yl)ethyl]-1-(5-phenylthieno[2,3-d]pyrimidin-4-yl)piperidine-4-carboxamide], 500 to 3000 nM.
In the case of `CC(=O)N1CCN(CCOCC2CCN(c3ncnc4scc(-c5ccccc5)c34)CC2)CC1` [Example 261], the IC50 was below 500 nM.
The molecule `CN1CCC(N(C)CC2CCN(c3nc(CN4CCCC4=O)nc4scc(-c5ccccc5)c34)CC2)C1` (stereo not shown) [Example 244, 1-[[4-[4-[[methyl-(1-methylpyrrolidin-3-yl)amino]methyl]-1-piperidyl]-5-phenyl-thieno[2,3-d]pyrimidin-2-yl]methyl]pyrrolidin-2-one] showed an IC50 below 500 nM.
As for `c1ccc(-c2csc3ncnc(N4CCC(CN5CCOC(c6ccccc6)C5)CC4)c23)cc1` (stereo not shown) [Example 56, 2-phenyl-4-[[1-(5-phenylthieno[2,3-d]pyrimidin-4-yl)-4-piperidyl]methyl]morpholine], the IC50 was below 500 nM.
`c1ccc(-c2csc3ncnc(N4CCC(COCCN5CCCC5)CC4)c23)nc1` [Example 320] yielded an IC50 of 500 to 3000 nM.
For `CC(C)CC(=O)Nc1sc2nc(N3CCC(COCCN4CCCC4)CC3)ncc2c1-c1ccccc1` [Example 303], the IC50 was below 500 nM.
To `Fc1ccc(-c2csc3ncnc(N4CCC(COCCN5CCOCC5)CC4)c23)cc1` [Example 21, 4-[2-[[1-[5-(4-fluorophenyl)thieno[2,3-d]pyrimidin-4-yl]-4-piperidyl]methoxy]ethyl]morpholine] belongs below 500 nM; to `Cc1sc2nc(N3CCC(C(N)=O)C3)nc(N3CCC(CNCCC4CCCCN4C)CC3)c2c1C` (stereo not shown) [Example 240], below 500 nM; to `CNC(=O)CN(CC1CCN(c2ncnc3scc(-c4ccccc4)c23)CC1)C1CCC1` [Example 252, 2-[cyclobutyl-[[1-(5-phenylthieno[2,3-d]pyrimidin-4-yl)-4-piperidyl]methyl]amino]-N-methyl-acetamide], 500 to 3000 nM.
The molecule `c1ccc(-c2csc3ncnc(N4C5CCC4CC(N4CCC4)C5)c23)cc1` (stereo not shown) [Example 326] showed a half-inhibitory concentration (IC50) below 500 nM.
`O=C(NCCO)c1sc2ncnc(N3CCC(COCCN4CCCC4)CC3)c2c1-c1ccccc1` [Example 280] returned an IC50 of 500 to 3000 nM.
With `CN(C)C(=O)c1sc2ncnc(N3C4CCC3CC(N3CCCC3)C4)c2c1-c1ccccc1` (stereo not shown) [Example 353, N,N-dimethyl-5-phenyl-4-(3-pyrrolidin-1-yl-8-azabicyclo[3.2.1]octan-8-yl)thieno[2,3-d]pyrimidine-6-carboxamide], the IC50 is below 500 nM.
Molecule `CN(CC1CCN(c2ncnc3scc(-c4ccccc4)c23)CC1)C1CCC1` [Example 251] had an IC50 below 500 nM.
Regarding `Fc1ccc(-c2csc3ncnc(N4CC5C(COCCN6CC7CC6CO7)C5C4)c23)cc1` (stereo not shown) [Example 48, 5-[2-[[3-[5-(4-fluorophenyl)thieno[2,3-d]pyrimidin-4-yl]-3-azabicyclo[3.1.0]hexan-6-yl]methoxy]ethyl]-2-oxa-5-azabicyclo[2.2.1]heptane], the IC50 was below 500 nM.
The result for `CN1CCC(N(C)CC2CCN(c3nc(N4CC(C(N)=O)C4)nc4scc(-c5ccccc5)c34)CC2)C1` (stereo not shown) [Example 237] reads below 500 nM.

In general, IC50 refers to the concentration that gives 50% inhibition. A low value points to greater potency in that assay.
